Test results from publication PMC6193035, “Novel small molecules affecting cell membrane as potential therapeutics for avian pathogenic Escherichia coli” (Scientific Reports, 2018).
Values after ≈ are worked out from the molar mass of the structure shown.

Experiments:
APEC O78 [1] = assay: Bacterial cytological profiling by confocal microscopy; type: cell-based, Escherichia coli; settings: 2X MBC, 2 h
Experimental: Confocal microscopy was used for bacterial cytological profiling (BCP) to identify the cellular pathways targeted by SMs as described previously. […] After incubation, treated cultures were centrifuged, washed, and resuspended in 100 µL PBS. FM4-64 (#T13320 Molecular Probes/Invitrogen) (1 µg/mL) and SYTO-9 (#S34854 Molecular Probes/Invitrogen) (5 µM) were added to the bacterial cultures and incubated for 45 mins at room temperature with shaking at 150 rpm. Cultures were then centrifuged, washed, and resuspended in PBS to 1/10th volume of the original cultures.

[2] = system: biofilm embedded APEC O78; assay: MBEC High-throughput (HTP) assay; type: cell-based, Escherichia coli
Experimental: The effect of cidal SMs against biofilm embedded APEC was determined using MBEC High-throughput (HTP) assay (Innovotech Inc., AB, Canada)[22]. Briefly, 150 μL of 0.05 OD600 adjusted APEC O78 culture was aliquoted into each well of the MBEC device containing polystyrene pegs and incubated at 37 °C for 36 h in LB media under stationary condition. […] The plate was incubated in the dark for 18 h at 37 °C with rotation at 110 rpm. The DMSO (1%) and […] media were used as positive and negative controls, respectively. Following incubation, MIC of SMs in challenged plate was recorded. The SMs exposed pegs were then transferred to a new 96-well plate containing PBS and sonicated for 30 mins (Aquasonic ultrasonic cleaner, VWR) to disrupt the biofilm. The sonicated suspensions were ten-fold serially diluted and plated on LB agar plate. Biofilm embedded APEC bacteria were enumerated and minimum biofilm eradication concentration (MBEC) of SMs were determined as described previously. Two independent experiments were conducted.

APEC O1-63 = assay: MIC and MBC determination in M63 media; type: cell-based; settings: Escherichia coli; APEC O1-63, M63 media
[3] = system: intracellular APEC O78, O2, and O1 in infected Caco-2, HD11, and THP1 cells; assay: Intracellular survival assay, statements over all serotypes and cells; type: cell-based, Escherichia coli; settings: Escherichia coli, 6 h, O78, O2 and O1; Caco-2, HD11, THP-1; 6 h; read-out: concentration clearing intracellular APEC
Experimental: (§1) Intracellular survival assay was conducted as described previously[28],[29] to determine the effect of cidal SMs on APEC survival in phagocytic (HD11, THP-1) and non-phagocytic (Caco-2) cells. Briefly, mid-logarithmic phase grown APEC O78, O1, and O2 were washed and adjusted to 1 × 10^7 CFU/mL in cell culture incomplete media (no FBS and antibiotics). One-hundred microlitres adjusted APEC suspension was added at multiplicity of infection (MOI) 10 to wells of 96-well cell culture plate containing cultured macrophage (HD11, THP-1) and epithelial cells (Caco-2) and incubated for 1 h and 3 h, respectively. […] The cells were then lysed with 100 µL of 0.1% Triton X-100 for 5 mins, serially diluted, and plated on LB agar plate to enumerate viable bacteria. The intracellular bacteria in SMs treated wells were compared with DMSO (1%) treated wells. Two independent experiments in duplicate wells for each concentration of SMs were conducted.

APEC O109 = assay: MIC and MBC determination in M63 media; type: cell-based; settings: Escherichia coli
APEC O78 [4] = assay: Crystal violet (CV) uptake assay; type: cell-based, Escherichia coli; settings: 2X MBC, 30 mins; P < 0.05, Student's t-test
Experimental: Membrane permeability assays (crystal violet (CV) uptake and loss of 260/280 nm absorbing materials) were conducted as described previously. […] CV uptake was measured using the formula: (OD DMSO − OD SM/OD DMSO × 100). Two independent experiments in duplicates were conducted.

APEC O35 = assay: MIC and MBC determination in M63 media; type: cell-based; settings: Escherichia coli
[5] = system: intracellular APEC O2 in Caco-2 cells; assay: Intracellular survival assay; type: cell-based, Escherichia coli
Experimental: as §1

[6] = system: intracellular APEC O1 in THP-1 cells; assay: Intracellular survival assay; type: cell-based, Escherichia coli
Experimental: as §1

[7] = system: intracellular APEC O1 in HD11 cells; assay: Intracellular survival assay; type: cell-based, Escherichia coli
Experimental: as §1

[8] = system: intracellular APEC O2 in THP-1 cells; assay: Intracellular survival assay; type: cell-based, Escherichia coli
Experimental: as §1

[9] = system: intracellular APEC O1 in Caco-2 cells; assay: Intracellular survival assay; type: cell-based, Escherichia coli
Experimental: as §1

[10] = system: intracellular APEC O78 in HD11 cells; assay: Intracellular survival assay; type: cell-based, Escherichia coli
Experimental: as §1

[11] = system: intracellular APEC O78 in THP-1 cells; assay: Intracellular survival assay; type: cell-based, Escherichia coli
Experimental: as §1

[12] = system: intracellular APEC O2 in HD11 cells; assay: Intracellular survival assay; type: cell-based, Escherichia coli
Experimental: as §1

[13] = system: intracellular APEC O78 in Caco-2 cells; assay: Intracellular survival assay; type: cell-based, Escherichia coli
Experimental: as §1

With COc1ccc(CCN(Cc2cc3c(cc2Cl)OCO3)CC2CCN(C)CC2)cc1 [SM11] the “cytological profile (FM4-64 / SYTO-9 staining)” value (APEC O78 [1]) was “bright red foci at random positions throughout the cell indicating membrane defects (membrane pore formers)”, the “MBEC as multiple of MIC (superscript)” value ([2]; 18 h challenge in M63 media) was “d (4X MIC)” and the “MBEC as multiple of MIC” value ([2]; tested 0.5X to 8X MIC) was 4 X MIC. For the same molecule, the MBC (APEC O1-63) was 200 µM (≈ 86.2 µg/mL), the MIC (APEC O1-63) was 100 µM (≈ 43.1 µg/mL) and the minimal effective concentration [3] was no less than 100 µM. The MBC (APEC O109) was 200 µM (≈ 86.2 µg/mL), the MIC (APEC O109) was 200 µM (≈ 86.2 µg/mL) and the “uptake of crystal violet compared with DMSO” value (APEC O78 [4]) was “increased the uptake of crystal violet”. It also gave an MBC (APEC O35) of 200 µM (≈ 86.2 µg/mL), an MIC (APEC O35) of 100 µM (≈ 43.1 µg/mL) and a minimal effective concentration ([5]; Escherichia coli, O2, Caco-2, 6 h treatment, read-out: SMs intracellular APEC clearance concentration) of 200 µM. For the same molecule, the “intracellular APEC clearance concentration as multiple of MIC (superscript)” value ([5]; O2, Caco-2) was “b (2X MIC)”, the “concentration at which the SM significantly (P < 0.01) reduced intracellular APEC (superscript of t-statistic)” value ([5]; O2, Caco-2, 6 h) was “b (1X MIC)” and the minimal effective concentration ([6]; Escherichia coli, O1, THP-1, 6 h treatment, read-out: SMs intracellular APEC clearance concentration) was greater than 200 µM. The “concentration at which the SM significantly (P < 0.01) reduced intracellular APEC (superscript of t-statistic)” value ([6]; O1, THP-1, 6 h) was “b (1X MIC)”, the minimal effective concentration ([7]; Escherichia coli, O1, HD11, 6 h treatment, read-out: SMs intracellular APEC clearance concentration) was 200 µM and the “concentration at which the SM significantly (P < 0.01) reduced intracellular APEC (superscript of t-statistic)” value ([7]; O1, HD11, 6 h) was “b (1X MIC)”. For the same molecule, the minimal effective concentration ([8]; Escherichia coli, O2, THP-1, 6 h treatment, read-out: SMs intracellular APEC clearance concentration) was 100 µM, the “concentration at which the SM significantly (P < 0.01) reduced intracellular APEC (superscript of t-statistic)” value ([8]; O2, THP-1, 6 h) was “a (0.5X MIC)” and the minimal effective concentration ([9]; Escherichia coli, O1, Caco-2, 6 h treatment, read-out: SMs intracellular APEC clearance concentration) was greater than 200 µM. The “concentration at which the SM significantly (P < 0.01) reduced intracellular APEC (superscript of t-statistic)” value ([9]; O1, Caco-2, 6 h) was “b (1X MIC)”, the minimal effective concentration ([10]; Escherichia coli, O78, HD11, 6 h treatment, read-out: SMs intracellular APEC clearance concentration) was 100 µM and the “intracellular APEC clearance concentration as multiple of MIC (superscript)” value ([10]; O78, HD11) was “a (1X MIC)”. For the same molecule, the “concentration at which the SM significantly (P < 0.01) reduced intracellular APEC (superscript of t-statistic)” value ([10]; O78, HD11, 6 h) was “a (0.5X MIC)”, the minimal effective concentration ([11]; Escherichia coli, O78, THP-1, 6 h treatment, read-out: SMs intracellular APEC clearance concentration) was 100 µM and the “intracellular APEC clearance concentration as multiple of MIC (superscript)” value ([11]; O78, THP-1) was “a (1X MIC)”. For the same molecule, the “concentration at which the SM significantly (P < 0.01) reduced intracellular APEC (superscript of t-statistic)” value ([11]; O78, THP-1, 6 h) was “a (0.5X MIC)”, the minimal effective concentration ([12]; Escherichia coli, O2, HD11, 6 h treatment, read-out: SMs intracellular APEC clearance concentration) was 200 µM and the “intracellular APEC clearance concentration as multiple of MIC (superscript)” value ([12]; O2, HD11) was “b (2X MIC)”. For the same molecule, the “concentration at which the SM significantly (P < 0.01) reduced intracellular APEC (superscript of t-statistic)” value ([12]; O2, HD11, 6 h) was “a (0.5X MIC)”, the minimal effective concentration ([13]; Escherichia coli, O78, Caco-2, 6 h treatment, read-out: SMs intracellular APEC clearance concentration) was 100 µM and the “intracellular APEC clearance concentration as multiple of MIC (superscript)” value ([13]; O78, Caco-2) was “a (1X MIC)”. For the same molecule, the “concentration at which the SM significantly (P < 0.01) reduced intracellular APEC (superscript of t-statistic)” value ([13]; O78, Caco-2, 6 h) was “b (1X MIC)”.
